The values that follow come from patent EP4653435A1, “PRMT5-MTA INHIBITOR” (Suzhou Puhe Biopharma Co., Ltd., priority 2023, dated 2024).

The test system of data set [1] is SDMA/HCT116-MTAPdel. Kind of data set: In-cell arginine symmetric dimethylation inhibition (In-cell western, ICW), MTAP-deficient cells. Format: cell-based. Conditions: for IC50: Homo sapiens, HCT-116, HCT116 MTAP-deficient cells, 96 hours; for Selectivity wt/MTAPdel: ratio SDMA IC50 wt / MTAPdel. As for the experimental part: (§1) 60 nL of different concentrations of compounds were added to each well using an Echo, and incubated at 37°C, 5% CO2 for 96 hours.
(§2) Next, 50 µL of 4% paraformaldehyde solution was added to each well and incubated at room temperature for 20 minutes to fix the cells. The solution in the wells was removed, and each well was rinsed four times with PBS solution containing 0.1% Tween 20 (PBST). To each well was then added 30 µL of ice-cold methanol. After standing at -20°C for 10 minutes, the methanol was removed and the wells washed four times with PBST. 30 µL of Odyssey blocking solution containing 0.5% Tween 20 was added to each well and shaken for 2 hours at room temperature. The blocking solution was removed and 30 µL of primary antibody (Symmetric Di-Methyl Arginine Motif [sdma-RG] MultiMab™ Rabbit mAb mix) diluted at 1:500 in Odyssey blocking solution containing 0.5% Tween 20 was added to each well. The plates were incubated overnight at 4°C, before removing the primary antibody and rinsing each well four times with PBST, 5 minutes per rinse. Secondary antibody (goat anti-rabbit IRDye 800CW, 1:800) and nuclear stain (DRAQ5, 1:10000) diluted in Odyssey blocking solution containing 0.5% Tween 20 were then added to each well before incubating at room temperature for 2 hours in the dark. The secondary antibody was removed, and the wells rinsed four times with PBST.
(§3) The sdme-RG and DRAQ5 signals were scanned at 800 nm and 700 nm respectively on a Li-Cor Odyssey instrument and the signal values recorded. The sdme-RG/DRAQ5 ratio was used to calculate the percentage inhibition of arginine symmetric dimethylation (SDMA), and the IC50 value calculated using GraphPad Prism software.

The nature of data set [2]: Liver microsomal stability assay, human. The note with it: liver microsomes.
Method: (§6) The compounds to be tested were co-incubated with liver microsomes of different species with or without the addition of NADPH. The final concentration of the test compounds in the test system was 1 µM, the final concentration of NADPH was 1 mM, and the final concentration of liver microsomes was 0.5 mg/mL.
Data set [3] in a line: in vitro. Conditions: dog, MDCK-MDR1, pH 7.4. As for the experimental part:
(§4) The membrane permeability of the molecules of the present invention was evaluated to predict their permeability to the brain.
(§5) The specific procedure was: 1. MDCK-MDR1 cells were pre-cultured at a density of 1.56*10^6 cells/mL in a 96-well plate at 37°C for 7 days. 2. The MDCKII-MDR1 plate was taken out of the incubator, rinsed twice with pre-warmed HBSS (10 mM HEPES, pH 7.4), and then incubated at 37°C for 30 minutes. 3. The stock solution of the compound to be tested was diluted with DMSO to obtain a 0.2 mM solution, and then diluted with HBSS (10 mM HEPES, pH 7.4) to obtain a 1 µM working solution. A blank control group was also diluted with DMSO to obtain a 0.2 mM solution, and then diluted with HBSS (10 mM HEPES, pH 7.4) to obtain a 1 µM working solution. The final concentration of DMSO in the culture system was 0.5%. 4. The transport rate of the drug in the apical to basolateral direction was determined: 125 µL of the 1 µM test compound solution was added to a Transwell insert (top compartment), before immediately transferring a 50 µL sample (D0 sample) from the top comparment to a new 96-well plate. The receiving plate wells (basolateral compartment) were filled with 235 µL HBSS (10 mM HEPES, pH 7.4) and incubated at 37°C for 2 hours. 5. Upon completion of the incubation, 50 µL samples were transferred from the donor and acceptor sides to the wells of a new 96-well plate, before adding 4 volumes of cold acetonitrile containing an appropriate internal standard (IS). Prior to LC-MS/MS analysis, 100 µL of the supernatant was taken and mixed with an appropriate volume of ultrapure water. Papp = (VA×[drug]acceptor)/(Area×Time×[drug]initial,donor) [formula] where VA is the volume of the receptor pores (unit:mL), Area is the surface area of the membrane (0.143 cm^2 for a Transwell-96 well permeable support), and time is the total transport time in seconds. Efflux Ratio = Papp(B−A) /Papp(A−B) [formula]

For data set [4], the system named is MDR1 (P-gp). Briefly: in vitro. Conditions: dog, MDCK-MDR1, pH 7.4. As for the experimental part:
as §4, §5

Data set [5] relates to SDMA/HCT116-MTAPwt. Kind of data set: In-cell arginine symmetric dimethylation inhibition (In-cell western, ICW), wild-type cells. The note with it: Homo sapiens, HCT-116, 96 hours. The format is cell-based. The protocol: as §1, §2, §3
Data set [6] relates to NCI-H838 (MTAPdel) non-small cell lung adenocarcinoma tumor cells. Kind of data set: In vivo efficacy, NCI-H838 subcutaneous xenograft. Details: species or system BALB/c nude mice. The note with it: BID, oral; for TGI: 23 consecutive days; for Tumor volume (mm^3)-D1: D1 (baseline at start of dosing). The protocol: NCI-H838 (MTAPdel) non-small cell lung adenocarcinoma tumor cells were cultured and inoculated into 6-8 week old female BALB/c nude mice (weighing about 20 g), with all mice inoculated subcutaneously. The mice were cultured in an SPF-grade environment, and all mice had free access to commercially certified standard diets. Test compounds were orally administered daily once the average tumor volume of the mice grew to about 140 mm^3. The control group received blank solvent (saline containing 0.1% Tween 80 and 0.5% methyl cellulose), while the test group received a drug dose of 75 mg/kg or 100 mg/kg, twice a day. Tumor volume was measured in two dimensions with calipers three times a week, and the animals were weighed every day. […] Volume calculation formula: V=1/2a*b^2, where a denotes the long diameter of the tumor, and b the short diameter of the tumor.

Data set [7] can be described thus: Mouse pharmacokinetics testing. The format is in vivo, CD1 female mice. The note with it: female, CD1, mouse, in vivo. As for the experimental part: CD1 female mice were used as test animals and administered the compounds orally/intravenously (oral dosage was 10 mg/kg and intravenous dosage was 2 mg/kg). Test protocol: Each oral and intravenous group consisted of three mice. […] Plasma drug concentrations after oral and intravenous administration were determined by LC/MS/MS, and the collected data analyzed using AB Sciex QTRAP 6500 software.

A short description of data set [8]: Liver microsomal stability assay, mouse. The format is in vitro ADME. The note with it: mouse liver microsomes 0.5 mg/mL, compound 1 µM, NADPH 1 mM, 60 minute.
Method: as §6
The subject of data set [9] is HCT116-MTAPwt. Briefly: 2D antiproliferative assay (CTG cell viability), wild-type cells. Format: cell-based. The note with it: Homo sapiens, HCT-116, 7-10 days.
Data set [10] deals with HCT116-MTAPdel. Briefly: 2D antiproliferative assay (CTG cell viability), MTAP-deficient cells. Format: cell-based. Conditions: for IC50: Homo sapiens, HCT-116, HCT116 MTAP-deficient cells, 7-10 days, CTG, read-out: HCT116-MTAPdel/IC50/nM; for HCT116WT IMTAPdel selectivity: ratio IC50 wild type / MTAPdel, antiproliferation.
In data set [11] the test system is HUP-T4 (MTAPdel) human pancreatic cancer tumor cells. Briefly: In vivo efficacy, HUP-T4 subcutaneous xenograft. Conditions: BID, oral; for TGI: 28 consecutive days; for Tumor volume (mm^3)-D1: D1 (baseline at start of dosing). Details: species or system BALB/c nude mice. As for the experimental part:
HUP-T4 (MTAPdel) human pancreatic cancer tumor cells (MEM medium with 10% fetal bovine serum) were cultured and inoculated into 6-8 week old female BALB/c nude mice (weighing about 25 g), with all mice subcutaneously inoculated. The mice were cultured in an SPF-grade environment, and all mice had free access to commercially certified standard diets. Test compounds were orally administered daily once the average tumor volume of the mice grew to about 176 mm^3. The control group received blank solvent (0.1% TW80+0.5% methylcellulose+99.4% saline), while the test group received a drug dose of 75 mg/kg or 50 mg/kg, twice a day. Tumor volume was measured in two dimensions with calipers three times a week, and the animals were weighed every day. […] Voume calculation formula: V=1/2a*b^2, where a denotes the long diameter of the tumor, and b the short diameter of the tumor.

Data set [12] concerns the target hERG channels (Homo sapiens, UniProt Q12809). Kind of data set: cell-based.
Method: The CHO hERG-Duo cell line stably expressing hERG channels was purchased from B'SYS GmbH and screened for monoclonal clones using the patch clamp system of Pharmaron Beijing Co., Ltd. The cells were cultured in a medium containing F12 (HAM) medium, 10% fetal bovine serum, 100 U/mL penicillin-streptomycin, 100 µg/mL hygromycin, and 100 µg/mL G418.
The membrane was depolarized to +30 mV for 4.8 seconds before returning the voltage to -50 mV for 5.2 seconds to remove inactivation and measure the deactivation tail current. The sampling interval was 15 seconds, and the peak tail current size was used to quantify the hERG current amplitude.
A blank vehicle was applied to the cells to establish a baseline. Test samples were introduced after stabilizing the hERG current for at least 5 minutes. In the presence of the test compound, the hERG current at different working concentrations was recorded for no less than 5 minutes until reaching a steady state, before capturing 5 sweeps. If a steady state was not reached within 10 minutes, the mean peak current of the last 5 sweeps was taken instead of the steady-state value. […] Peak current inhibition = (1−(Peak tail currentcompound −Peak tail currentpositive control)/(Peak tail currentBlank vehicle −Peak tail currentpositive control)) × 100 [formula]

Molecules are shown by their SMILES.

hERG channels, sequence (Q12809 whole entry): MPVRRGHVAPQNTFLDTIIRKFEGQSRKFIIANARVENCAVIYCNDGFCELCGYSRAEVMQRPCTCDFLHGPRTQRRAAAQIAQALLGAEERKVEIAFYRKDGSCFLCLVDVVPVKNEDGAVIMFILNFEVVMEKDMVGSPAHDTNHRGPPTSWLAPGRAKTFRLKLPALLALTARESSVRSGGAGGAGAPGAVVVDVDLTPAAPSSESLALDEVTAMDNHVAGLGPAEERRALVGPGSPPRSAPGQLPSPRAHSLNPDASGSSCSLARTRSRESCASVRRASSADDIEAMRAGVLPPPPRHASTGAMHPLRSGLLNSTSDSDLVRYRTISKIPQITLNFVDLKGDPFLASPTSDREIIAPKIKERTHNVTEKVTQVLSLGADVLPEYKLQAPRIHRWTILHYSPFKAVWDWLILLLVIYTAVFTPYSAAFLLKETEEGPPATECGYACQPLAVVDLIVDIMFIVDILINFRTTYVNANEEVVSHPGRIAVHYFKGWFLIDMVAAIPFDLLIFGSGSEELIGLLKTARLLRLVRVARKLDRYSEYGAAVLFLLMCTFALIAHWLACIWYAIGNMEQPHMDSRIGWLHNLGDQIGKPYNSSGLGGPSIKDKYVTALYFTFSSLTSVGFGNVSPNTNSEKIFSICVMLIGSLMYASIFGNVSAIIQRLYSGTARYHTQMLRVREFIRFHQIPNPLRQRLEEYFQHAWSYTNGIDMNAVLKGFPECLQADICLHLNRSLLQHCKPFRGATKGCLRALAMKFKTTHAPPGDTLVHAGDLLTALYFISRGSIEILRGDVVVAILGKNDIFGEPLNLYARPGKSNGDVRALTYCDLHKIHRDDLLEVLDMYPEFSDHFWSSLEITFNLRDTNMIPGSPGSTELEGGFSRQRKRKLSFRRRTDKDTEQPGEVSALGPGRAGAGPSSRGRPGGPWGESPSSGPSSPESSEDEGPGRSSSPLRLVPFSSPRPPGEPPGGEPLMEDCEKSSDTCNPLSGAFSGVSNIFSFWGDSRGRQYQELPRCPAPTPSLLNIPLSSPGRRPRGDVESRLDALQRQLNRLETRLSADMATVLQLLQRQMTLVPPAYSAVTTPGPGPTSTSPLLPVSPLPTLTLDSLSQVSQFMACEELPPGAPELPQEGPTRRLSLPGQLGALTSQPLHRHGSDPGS

As a reminder, the CLint scaled is the capacity of the preparation to metabolise the compound, expressed as a volume cleared per time. A word on the Papp A→B: it is the apparent permeability from the apical to the basolateral side of a cell layer. Read a high Papp A→B as ready permeation. The term Papp B→A denotes the apparent permeability from the basolateral to the apical side of a cell layer. The term efflux ratio denotes the permeability from basolateral to apical divided by that in the opposite direction, in the common usage. For orientation: AUC(0-t) means exposure summed from dosing to a finite time, without extrapolation to infinity. The term clearance denotes a measure of how efficiently the substance is removed, as volume per time. High values mean a high capacity for elimination, low ones a low capacity for elimination. One may read the half-life as how long it takes for the measured level to halve. For orientation: Cmax means the maximum level reached in the sampled fluid or tissue. A word on the Tmax: it is the time at which the peak concentration occurs. For `CN(C(=O)C(=O)Nc1cnc(N)c2c1cnn2C)[C@@H]1COc2cc(C(F)(F)F)ccc21` [Compound P2a], in data set [1], the IC50 was 0.5 nM and the “Selectivity wt/MTAPdel” value is on record as 3054. In addition, in data set [2], the CLint scaled at 1 µM stood at 7.4 mL/min/kg. Moreover, in [3], the apparent permeability from apical to basolateral (Papp A→B) turned out to be 14.8 ×10⁻⁶ cm/s and the Papp B→A was 22.1 ×10⁻⁶ cm/s. The efflux ratio in data set [4] came out at 1.5. Also, the IC50 in [5] was 1530 nM. In addition, in data set [6] (75 mg/kg), the TGI is listed as 92%, the “Tumor volume (mm^3)-D1” value was found to be 140 mm^3 and the “Tumor volume (mm^3)-D23” value came to 350 mm^3. In data set [6] (100 mg/kg), the TGI was 97%, the “Tumor volume (mm^3)-D1” value is recorded as 140 mm^3 and the “Tumor volume (mm^3)-D23” value amounted to 180 mm^3. The F in [7] came to 69%. In [7] (iv, 2 mg/kg), this compound gave an area under the curve AUC(0-t) of 402 ng·h/mL, a C0 of 345 ng/mL, a clearance of 82.4 mL/min/kg and a half-life of 1.2 h. In data set [7] (po, 10 mg/kg), the AUC(0-t) was 1380 ng·h/mL, the Cmax was determined as 707 ng/mL, the time of peak concentration (Tmax) was 0.25 h and the half-life is 1.2 h. The same compound registered a CLint scaled at 1 µM in data set [8] of 55 mL/min/kg. In addition, the IC50 in data set [9] was 1080 nM. In addition, in data set [10], the IC50 is 5 nM and the “HCT116WT IMTAPdel selectivity” value came out at 216.
For the compound `[2H]C([2H])([2H])N(C(=O)C(=O)Nc1cnc(N)c2c1cnn2C)[C@@H]1COc2cc(C(F)(F)F)ccc21` [Compound P22], in [1], the IC50 was found to be 0.2 nM and the “Selectivity wt/MTAPdel” value amounted to 1490. The CLint scaled at 1 µM in data set [2] worked out at 7.8 mL/min/kg. In [3], this compound displayed a Papp A→B of 14.9 ×10⁻⁶ cm/s and a Papp B→A of 20.6 ×10⁻⁶ cm/s. Besides, the efflux ratio in data set [4] was found to be 1.38. In data set [5], this compound had an IC50 of 298 nM. The compound further came in with a F in [7] of 62%. In data set [7] (iv, 2 mg/kg), the AUC(0-t) was 896 ng·h/mL, the C0 stood at 1140 ng/mL, the clearance stood at 35.5 mL/min/kg and the half-life was 2.6 h. In [7] (po, 10 mg/kg), the AUC(0-t) was 2660 ng·h/mL, the Cmax was determined as 1180 ng/mL, the Tmax stood at 0.25 h and the half-life was 2.2 h. Also, in data set [11] (50 mg/kg), the TGI is given as 102%, the “Tumor volume (mm^3)-D1” value was 176 mm^3 and the “Tumor volume (mm^3)-D28” value was 158 mm^3. Also, in data set [11] (75 mg/kg), the TGI was found to be 104%, the “Tumor volume (mm^3)-D1” value was found to be 176 mm^3 and the “Tumor volume (mm^3)-D28” value came out at 146 mm^3. For the same compound, in data set [8], the intrinsic clearance (CLint scaled) at 1 µM was 46.2 mL/min/kg. For the same compound, the IC50 in [9] stood at 961 nM. Further, in [10], the IC50 was 6 nM and the “HCT116WT IMTAPdel selectivity” value is listed as 160.
In the case of `CN(C(=O)C(=O)Nc1cnc(N)c2c1cnn2C)[C@@H]1COc2cc(SC(F)(F)F)ccc21` [Compound P29a], the IC50 turned out to be 1500 nM in [12]; 0.4 nM in data set [1]; 268 nM in [5]; 2350 nM in data set [9]; 9 nM in [10]. For the same compound, in [1], the “Selectivity wt/MTAPdel” value is 670. For the same compound, the CLint scaled at 1 µM in data set [2] came to 49.7 mL/min/kg. Also, the Papp A→B in data set [3] is 7.6 ×10⁻⁶ cm/s. In data set [3], this compound yielded a Papp B→A of 13.3 ×10⁻⁶ cm/s. For the same compound, in [4], the efflux ratio is 1.75. Besides, the “HCT116WT IMTAPdel selectivity” value in data set [10] is reported as 261.
